The species named for this experiment is Rattus norvegicus. The experiment is described as follows: Inhibition of [3H]GABA (gamma amino butyric acid) uptake in vitro in rat brain synaptosomes. In kind it is functional.
As usually defined, the IC50 is the concentration at which inhibition is half-maximal. The molecule `O=[PH](O)C1CCCNC1` (stereo not given) had a 50% inhibitory concentration (IC50) of 24 µM.
With `CP(=O)(O)C1CCCNC1` (stereo not given) the figure was over 1000 µM; with `O=[PH](O)C1CCCN(CCC=C(c2ccccc2)c2ccccc2)C1` (stereo not given), 53 µM.
As to `O=C(O)C1CCCN(CCC=C(c2ccccc2)c2ccccc2)C1` (stereo not given), the IC50 is 0.1 µM.
In turn, `O=C(O)C1CCCNC1` (stereo not given) [NIPECOTIC ACID] had an IC50 of 4 µM.

Source of the values: ChEMBL document CHEMBL1132070, “Piperidinyl-3-phosphinic acids as novel uptake inhibitors of the neurotransmitter gamma-aminobutyric acid (GABA)” (Bioorg Med Chem Lett, 1999).
